The results in this text go back to ChEMBL document CHEMBL1201862, “PubChem BioAssay data set” (2004).

Molecules are shown by their SMILES.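 Following 48 hours of exposure in 96-well plates, responses at five concentrations were used to interpolate endpoints linearly. Abbreviation: GI50, concentration required for 50% inhibition of growth.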 The source made the active and inactive calls. No stated cut-off is given here; in the data, active = GI50 up to about 1.1 µM and inactive = higher. Where a SMILES comes first, the peptide text is derived from it. [ ]: non-standard residue; d: D form. The star is where a group is joined. Bn2Val = CC(C)[C@@H](C(=O)*)N(Cc1ccccc1)Cc1ccccc1; NH(3,4-diMeO-benzyl) = COc1ccc(CN*)cc1OC; NMeV = CN[C@H](C(=O)O)C(C)C Some results are limits rather than exact numbers.

Test systems include ACHN; OVCAR-8; TK-10; HL-60; EKVX; UO-31; U-251; SK-MEL-5; BT-549; 786-0; HCC 2998; Hs-578T; NCI-H522; UACC-62; SNB-75; NCI-H460; PC-3; SW-620; OVCAR-4; T47D.
Experiment in all cases: NCI tumour cell line growth inhibition, 48 h

Take `N#C/C(=C\Nc1ccccn1)C(=O)c1ccco1`: the GI50 with ACHN, in the experiment with OVCAR-8, in the experiment on TK-10, in the experiment with HL-60, in the experiment with EKVX and in the experiment on UO-31 was > 100 µM (inactive) throughout. Further, the GI50 in the experiment on U-251, with SK-MEL-5, in the experiment on BT-549, in the experiment with 786-0, in the experiment on HCC 2998 and in the experiment on Hs-578T was > 100 µM (inactive) throughout. The GI50 in the experiment on NCI-H522, with UACC-62, with SNB-75, with NCI-H460, in the experiment on PC-3 and in the experiment with SW-620 was > 100 µM (inactive) throughout. Moreover, the GI50 in the experiment on OVCAR-4 was > 100 µM (inactive).

Take `COc1ccc(NC(=S)Nc2cc(C)cc(C)n2)cc1`: the GI50 in the experiment with OVCAR-8, in the experiment with TK-10, in the experiment with HL-60, in the experiment with EKVX, in the experiment on T47D and in the experiment with UO-31 was > 100 µM (inactive) each time. Also, the GI50 in the experiment on U-251, in the experiment on SK-MEL-5, in the experiment on BT-549, with 786-0, in the experiment with Hs-578T and with NCI-H522 was > 100 µM (inactive) in each case. Further, the GI50 in the experiment with UACC-62, with SNB-75, in the experiment with NCI-H460, with PC-3, in the experiment on SW-620 and in the experiment on OVCAR-4 was > 100 µM (inactive) in each case.

For the compound `COc1ccc(C2C3COc4ccccc4C3=NN2c2ccccc2)cc1` (stereo not drawn), the GI50 is > 100 µM (inactive) in the experiment with ACHN; > 100 µM (inactive) in the experiment on OVCAR-8; > 100 µM (inactive) in the experiment with TK-10; > 100 µM (inactive) in the experiment with EKVX; 48.8 µM (inactive) in the experiment on T47D; > 100 µM (inactive) in the experiment with UO-31. For the same compound, the GI50 with U-251, in the experiment with SK-MEL-5, with BT-549, in the experiment with 786-0, with Hs-578T and with NCI-H522 was > 100 µM (inactive) in each case. Moreover, the GI50 in the experiment with UACC-62 was > 100 µM (inactive); with SNB-75 it was > 100 µM (inactive); in the experiment with NCI-H460 it was 94.4 µM (inactive); with PC-3 it was 57.7 µM (inactive); with SW-620 it was > 100 µM (inactive); with OVCAR-4 it was > 100 µM (inactive).

`O=C(O)C1CCc2ccc3ccccc3c2C1c1cccc2ccccc12` (stereo not drawn): the GI50 in the experiment on ACHN was 29.6 µM (inactive); in the experiment with OVCAR-8, 24.2 µM (inactive); with TK-10, 44.5 µM (inactive); in the experiment with HL-60, 26.6 µM (inactive); in the experiment with EKVX, 30.5 µM (inactive); in the experiment with T47D, 43.9 µM (inactive). The GI50 in the experiment with UO-31 was 25.8 µM (inactive); in the experiment on U-251 it was 17.9 µM (inactive); in the experiment on SK-MEL-5, 16.5 µM (inactive); in the experiment with BT-549, 19.1 µM (inactive); in the experiment on 786-0, 18.2 µM (inactive); with Hs-578T, 33.2 µM (inactive). For the same compound, the GI50 with NCI-H522 was 21.4 µM (inactive); in the experiment with UACC-62, 15.1 µM (inactive); in the experiment with SNB-75, 22.9 µM (inactive); in the experiment on NCI-H460, 20 µM (inactive); in the experiment on PC-3, 19.3 µM (inactive); in the experiment with SW-620, 28.2 µM (inactive). In the experiment with OVCAR-4, the GI50 was 29 µM (inactive).

As for `CCn1c(=O)c2c(=O)[nH][nH]c2c2ccccc21`, the GI50 in the experiment with ACHN, with OVCAR-8, with TK-10, in the experiment on HL-60, in the experiment on EKVX and with UO-31 was > 100 µM (inactive) throughout. Besides, the GI50 in the experiment with U-251, with SK-MEL-5, in the experiment on BT-549, in the experiment with 786-0, in the experiment with HCC 2998 and with Hs-578T was > 100 µM (inactive) each time. The GI50 with NCI-H522, with SNB-75, in the experiment on NCI-H460, in the experiment on PC-3, with SW-620 and with OVCAR-4 was > 100 µM (inactive) in each case.

For `CC1CCCc2c(C#N)c(N)nc(-c3ccc(Cl)cc3)c21` (stereo not drawn), the GI50 was 17.6 µM (inactive) in the experiment with ACHN; 31 µM (inactive) in the experiment with OVCAR-8; 29.8 µM (inactive) in the experiment on TK-10; 18.1 µM (inactive) with HL-60; 14.7 µM (inactive) in the experiment on EKVX; 5.96 µM (inactive) in the experiment with T47D. Also, the GI50 with UO-31 was 13.8 µM (inactive); with U-251, 22.2 µM (inactive); in the experiment on SK-MEL-5, 9.38 µM (inactive); in the experiment on BT-549, 17.9 µM (inactive); in the experiment on 786-0, 15.1 µM (inactive); with Hs-578T, 32.4 µM (inactive). For the same compound, the GI50 was 15.8 µM (inactive) in the experiment on UACC-62; 22.4 µM (inactive) with SNB-75; 22.8 µM (inactive) in the experiment on NCI-H460; 4.68 µM (inactive) with PC-3; 53.6 µM (inactive) with SW-620.

With `C/C(CC(O)(C(F)(F)Cl)C(F)(F)Cl)=N\Nc1ccccc1`, the GI50 in the experiment on ACHN is 27 µM (inactive); in the experiment on OVCAR-8 it was 36.7 µM (inactive); with TK-10 it was 38.4 µM (inactive); with HL-60, 22.5 µM (inactive); in the experiment on EKVX it was 23.1 µM (inactive); with T47D, 28.2 µM (inactive). For the same compound, the GI50 with UO-31 is 31.2 µM (inactive); in the experiment on U-251, 28.2 µM (inactive); in the experiment on SK-MEL-5, 19.1 µM (inactive); in the experiment on BT-549, 33.6 µM (inactive); with 786-0, 41.1 µM (inactive); with Hs-578T, 27.2 µM (inactive). Moreover, the GI50 is 28.5 µM (inactive) in the experiment with NCI-H522; 43.3 µM (inactive) in the experiment with UACC-62; 28.9 µM (inactive) in the experiment with SNB-75; 29.7 µM (inactive) in the experiment on NCI-H460; 22.2 µM (inactive) with PC-3; 31 µM (inactive) in the experiment with SW-620. Also, the GI50 in the experiment with OVCAR-4 was 63.7 µM (inactive).

As to `Cn1nc2ccc([N+](=O)[O-])c(Cn3nnc4ccccc43)c2n1`, the GI50 in the experiment on ACHN is > 100 µM (inactive); in the experiment with OVCAR-8, > 100 µM (inactive); with TK-10, > 100 µM (inactive); in the experiment on HL-60, > 100 µM (inactive); with EKVX, 87.9 µM (inactive); with T47D it was > 100 µM (inactive). Also, the GI50 in the experiment on UO-31 was > 100 µM (inactive); with U-251, > 100 µM (inactive); in the experiment on SK-MEL-5, 79.4 µM (inactive); in the experiment with BT-549, > 100 µM (inactive); in the experiment with 786-0, > 100 µM (inactive); in the experiment with HCC 2998 it was > 100 µM (inactive). In addition, the GI50 was 93.1 µM (inactive) with Hs-578T; > 100 µM (inactive) with UACC-62; 70.3 µM (inactive) in the experiment on SNB-75; > 100 µM (inactive) in the experiment with NCI-H460; > 100 µM (inactive) with SW-620; > 100 µM (inactive) in the experiment on OVCAR-4.

As to `Cc1ccc(Cc2cc(N3CCN(c4cccc(Cl)c4)CC3)nnc2C)cc1`, the GI50 was 88.5 µM (inactive) in the experiment on ACHN; 54.8 µM (inactive) in the experiment with OVCAR-8; > 100 µM (inactive) in the experiment with TK-10; 34.4 µM (inactive) in the experiment with EKVX; 24.3 µM (inactive) in the experiment with T47D; > 100 µM (inactive) in the experiment on UO-31. Besides, the GI50 in the experiment on U-251 is 32.7 µM (inactive); in the experiment on SK-MEL-5, 11.5 µM (inactive); with BT-549, > 100 µM (inactive); in the experiment on 786-0 it was 45.2 µM (inactive); in the experiment on Hs-578T, 54 µM (inactive); in the experiment on NCI-H522, 18.7 µM (inactive). Further, the GI50 with UACC-62 is > 100 µM (inactive); in the experiment on SNB-75 it was 50.4 µM (inactive); in the experiment on NCI-H460, 20.7 µM (inactive); with PC-3 it was 46.8 µM (inactive); with SW-620, 34.3 µM (inactive); in the experiment on OVCAR-4 it was > 100 µM (inactive).

With `COc1cc(-c2c3c(cc4c2OCO4)[C@@H](Nc2ccc(-c4ccc(-c5ccc(N[C@@H]6c7cc8c(cc7C(c7cc(OC)c(O)c(OC)c7)[C@H]7C(=O)OC[C@H]67)OCO8)cc5)cc4)cc2)[C@H]2COC(=O)[C@@H]2C3)cc(OC)c1O` (stereo partly drawn), the GI50 is 2.24 µM (inactive) with ACHN; 1.61 µM (inactive) in the experiment with OVCAR-8; 2.38 µM (inactive) with TK-10; 2.4 µM (inactive) in the experiment with HL-60; 4.51 µM (inactive) in the experiment with EKVX; 4.93 µM (inactive) in the experiment with T47D. Besides, the GI50 with UO-31 is 3.13 µM (inactive); with U-251, 3.09 µM (inactive); in the experiment on SK-MEL-5, 2.28 µM (inactive); in the experiment with BT-549, 2.84 µM (inactive); in the experiment on 786-0, 1.76 µM (inactive); in the experiment on Hs-578T, 2.6 µM (inactive). In addition, the GI50 in the experiment with SNB-75 is < 0.01 µM (active); in the experiment on NCI-H460 it was 3.05 µM (inactive); in the experiment with PC-3 it was 2.04 µM (inactive); with SW-620, 2.7 µM (inactive).

As for `COc1ccc(CNC(=O)[C@@H]2CCCN2C(=O)[C@@H]2CCCN2C(=O)[C@H](C(C)C)N(C)C(=O)[C@@H](NC(=O)[C@H](C(C)C)N(Cc2ccccc2)Cc2ccccc2)C(C)C)cc1OC` (Bn2Val-V[NMeV]PP-{NH(3,4-diMeO-benzyl)}), the GI50 in the experiment with ACHN is 13.7 µM (inactive); with OVCAR-8 it was 14.5 µM (inactive); in the experiment on TK-10, 14 µM (inactive); with HL-60 it was 3.15 µM (inactive); in the experiment on EKVX, 13.4 µM (inactive); with T47D, 12.6 µM (inactive). Besides, the GI50 in the experiment with U-251 is 15.7 µM (inactive); in the experiment on SK-MEL-5 it was 7.5 µM (inactive); in the experiment on BT-549, 14.7 µM (inactive); in the experiment with 786-0 it was 10.4 µM (inactive); with Hs-578T it was 51.3 µM (inactive); with NCI-H522 it was 8.85 µM (inactive). For the same compound, the GI50 with UACC-62 is 14.5 µM (inactive); in the experiment with SNB-75 it was 10.3 µM (inactive); with NCI-H460, 13.5 µM (inactive); in the experiment with PC-3, 6.15 µM (inactive); in the experiment on SW-620 it was 12.8 µM (inactive); in the experiment on OVCAR-4 it was 18 µM (inactive).
